≈ marks a conversion by molar mass, not a printed value. Read-outs that look alike come from different tables or passages of the source.
Legend:
M. hyopneumoniae LABER = assay: MIC against Mycoplasma in vitro (Friis broth with agarose); format: cell-based; settings: Mesomycoplasma hyopneumoniae, 144 h; M. hyopneumoniae LABER; 6 days at 37° C; read-out: MIC
[1] = system: M. hyopneumoniae ATCC 25095; assay: as above; format: cell-based; settings: Mesomycoplasma hyopneumoniae, ATCC25095, 144 h; M. hyopneumoniae ATCC 25095; 6 days at 37° C; read-out: MIC
[2] = system: M. hyopneumoniae PW/C/210; assay: as above; format: cell-based; settings: Mesomycoplasma hyopneumoniae, 144 h; M. hyopneumoniae PW/C/210; 6 days at 37° C; read-out: MIC
S. typhimurium S18 = assay: MIC against veterinary bacteria in vitro (Diagnostic Sensitivity Test Agar); settings: Salmonella enterica, 18 h
Method: (§2) The activity of the normonyl derivatives of the Examples against various veterinarily important bacteria, was assayed in vitro using two-fold serial dilutions in Diagnostic Sensitivity Test Agar inoculated with 10^4 organisms.

[3] = system: Corynebacterium pyogenes CY1; assay: as above; settings: CY1, 18 h
Method: as §2

M. gallisepticum S6 = assay: MIC against Mycoplasma in vitro (Friis broth with agarose); format: cell-based; settings: Mycoplasmoides gallisepticum, 144 h; M. gallisepticum S6; 6 days at 37° C; read-out: MIC
M. hyopneumoniae HK (2) = assay: as above; format: cell-based; settings: Mesomycoplasma hyopneumoniae, 144 h
M. bovis NCTC 10131 = assay: microbe, parasite or virus in culture; format: cell-based; settings: NCTC10131, 144 h
[4] = system: Erysipelothrix rhusiopathiae NCTC 8163; assay: MIC against veterinary bacteria in vitro (Diagnostic Sensitivity Test Agar); settings: NCTC8163, 18 h
Method: as §2

M. hyopneumoniae NB12 = assay: MIC against Mycoplasma in vitro (Friis broth with agarose); format: cell-based; settings: Mesomycoplasma hyopneumoniae
S. dublin S7 = assay: MIC against veterinary bacteria in vitro (Diagnostic Sensitivity Test Agar); settings: Salmonella enterica, S7, 18 h
Method: as §2

Strep. pneumoniae CN33 = assay: MIC against human bacteria in vitro (nutrient agar, chocolated horse blood); format: cell-based; settings: Streptococcus pneumoniae; human; Strep. pneumoniae CN33; 18 hours at 37° C; read-out: MIC
Method in brief: (§1)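 Test compounds are serially diluted into blood-supplemented nutrient agar (5% chocolated horse blood). Each strain is then tested against the series, and the MIC is recorded.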

[5] = system: Pasteurella multocida 1633; assay: as above; format: cell-based; settings: human; Pasteurella multocida 1633; 18 hours at 37° C; read-out: MIC
Method in brief: as §1

Strep. spp. 64/848-C = assay: as above; format: cell-based; settings: human; Strep. spp. 64/848-C; 18 hours at 37° C; read-out: MIC
Method in brief: as §1

Staph. aureus Oxford = assay: as above; format: cell-based; settings: Staphylococcus aureus; human; Staph. aureus Oxford; 18 hours at 37° C; read-out: MIC
Method in brief: as §1

[6] = system: Strep. pyogenes R80/421-A; assay: as above; format: cell-based; settings: Streptococcus pyogenes; human; Strep. pyogenes R80/421-A; 18 hours at 37° C; read-out: MIC
Method in brief: as §1

[7] = system: Corynebacterium xerosis 9755; assay: as above; format: cell-based; settings: human; Corynebacterium xerosis 9755; 18 hours at 37° C; read-out: MIC
Method in brief: as §1

[8] = system: Ps. aeruginosa NCTC 10662; assay: as above; format: cell-based; settings: Pseudomonas aeruginosa, NCTC10662; human; Ps. aeruginosa NCTC 10662; 18 hours at 37° C; read-out: MIC
Method in brief: as §1

P. mirabilis 889 = assay: as above; format: cell-based; settings: Proteus mirabilis; human; P. mirabilis 889; 18 hours at 37° C; read-out: MIC
Method in brief: as §1

K. aerogenes A = assay: as above; format: cell-based; settings: Klebsiella aerogenes; human; K. aerogenes A; 18 hours at 37° C; read-out: MIC
Method in brief: as §1

Strep. agalactiae 2788-B = assay: as above; format: cell-based; settings: Streptococcus agalactiae; human; Strep. agalactiae 2788-B; 18 hours at 37° C; read-out: MIC
Method in brief: as §1

[9] = system: Haemophilus influenzae Wy21; assay: as above; format: cell-based
Method in brief: as §1

Staph. aureus Russell = assay: as above; format: cell-based; settings: Staphylococcus aureus; human; Staph. aureus Russell; 18 hours at 37° C; read-out: MIC
Method in brief: as §1

[10] = system: Neisseria catarrhalis 1502; assay: as above; format: cell-based
Method in brief: as §1

E. coli NCTC 10418 = assay: as above; format: cell-based; settings: Escherichia coli, NCTC10418; human; E. coli NCTC 10418; 18 hours at 37° C; read-out: MIC
Method in brief: as §1

[11] = system: M. hyopneumoniae J2206/183^b; assay: MIC against Mycoplasma in vitro (Friis broth with agarose); format: cell-based; settings: Mesomycoplasma hyopneumoniae, 144 h; M. hyopneumoniae J2206/183^b; 6 days at 37° C; read-out: MIC
B. subtilis ATCC 6633 = assay: MIC against veterinary bacteria in vitro (Diagnostic Sensitivity Test Agar); settings: Bacillus subtilis, ATCC6633, 18 h
Method: as §2

Sarcina lutea 8340 = assay: MIC against human bacteria in vitro (nutrient agar, chocolated horse blood); format: cell-based; settings: Micrococcus luteus; human; Sarcina lutea 8340; 18 hours at 37° C; read-out: MIC
Method in brief: as §1

[12] = system: Haemophilus influenzae Q1; assay: as above; format: cell-based; settings: human; Haemophilus influenzae Q1; 18 hours at 37° C; read-out: MIC
Method in brief: as §1

[13] = M. hyopneumoniae HK (2), 6 days at 37° C, read-out: MIC
[14] = 144 h, M. hyopneumoniae NB12, 6 days at 37° C, read-out: MIC
[15] = human, Haemophilus influenzae Wy21, 18 hours at 37° C, read-out: MIC
[16] = human, Neisseria catarrhalis 1502, 18 hours at 37° C, read-out: MIC

Structure (SMILES)	MIC [1] [µg/mL]	MIC (S. typhimurium S18) [µg/mL]	MIC [3] [µg/mL]	MIC (M. gallisepticum S6) [µg/mL]	MIC (M. bovis NCTC 10131) [µg/mL]	MIC [4] [µg/mL]	MIC (S. dublin S7) [µg/mL]	MIC [5] [µg/mL]	MIC (Strep. spp. 64/848-C) [µg/mL]	MIC (Staph. aureus Oxford) [µg/mL]	MIC [6] [µg/mL]	MIC [7] [µg/mL]	MIC [8] [µg/mL]	MIC (P. mirabilis 889) [µg/mL]	MIC (K. aerogenes A) [µg/mL]	MIC (Strep. agalactiae 2788-B) [µg/mL]	MIC [9, 15] [µg/mL]	MIC (Staph. aureus Russell) [µg/mL]	MIC (E. coli NCTC 10418) [µg/mL]	MIC [11] [µg/mL]	other results
COC(=O)CCCCCCCCn1nnnc1C=C(C)CC1OCC(CC2OC2C(C)C(C)O)C(O)C1O (stereo not drawn) [Example 13, 1-(8-Methoxycarbonyloctyl)-5-(1-normon-2-yl)-1H-tetrazole A]	> 10	> 80	> 80	> 10	1 (≈ 1.86 µM)	> 80	> 80	64 (≈ 119 µM)	> 64	> 64	> 64	> 64	> 64	> 64	> 64	> 64	16 (≈ 29.7 µM)	> 64	> 64	> 10	MIC (M. hyopneumoniae LABER): > 10 µg/mL; MIC [2]: > 10 µg/mL; MIC (M. hyopneumoniae HK (2); [13]): > 10 µg/mL; MIC (M. hyopneumoniae NB12; [14]): > 10 µg/mL; MIC (Strep. pneumoniae CN33): > 64 µg/mL; MIC [10, 16]: 64 µg/mL (≈ 119 µM)
CC(=Cc1nnc(-c2cccc([N+](=O)[O-])c2)o1)CC1OCC(CC2OC2C(C)C(C)O)C(O)C1O (stereo not drawn) [Example 2, 2-m-Nitrophenyl-5-(1-normon-2-yl)-1,3,4-oxadiazole A]	0.025 (≈ 0.0511 µM)	> 80	> 80	> 10	0.025 (≈ 0.0511 µM)	40 (≈ 81.7 µM)	> 80	2 (≈ 4.09 µM)	32 (≈ 65.4 µM)	16 (≈ 32.7 µM)	4 (≈ 8.17 µM)	> 128	> 128	> 128	> 128	32 (≈ 65.4 µM)		64 (≈ 131 µM)	> 128	0.025 (≈ 0.0511 µM)	MIC (M. hyopneumoniae LABER): 0.025 µg/mL (≈ 0.0511 µM); MIC (M. hyopneumoniae HK (2)): 0.05 µg/mL (≈ 0.102 µM); MIC (M. hyopneumoniae NB12; NB12, 144 h): 0.05 µg/mL (≈ 0.102 µM); MIC (Strep. pneumoniae CN33): 32 µg/mL (≈ 65.4 µM); MIC ([9]; Haemophilus influenzae, WY21, 18 h): 0.5 µg/mL (≈ 1.02 µM); MIC ([10]; Neisseria, 1502, 18 h): 0.5 µg/mL (≈ 1.02 µM)
CC(=Cc1nnc(-c2cccc(C#N)c2)o1)CC1OCC(CC2OC2C(C)C(C)O)C(O)C1O (stereo not drawn) [Example 11, 2-(m-Cyanophenyl)-5-(1-normon-2-yl)-1,3,4-oxadiazole A]	0.25 (≈ 0.532 µM)	> 80	> 80	> 10	0.05 (≈ 0.106 µM)	40 (≈ 85.2 µM)	> 80	2 (≈ 4.26 µM)	2 (≈ 4.26 µM)	8 (≈ 17 µM)			> 64	> 64	> 64	2 (≈ 4.26 µM)	0.5 (≈ 1.06 µM)	32 (≈ 68.2 µM)	> 64	0.25 (≈ 0.532 µM)	MIC [2]: 0.1 µg/mL (≈ 0.213 µM); MIC (B. subtilis ATCC 6633): 2.5 µg/mL (≈ 5.32 µM); MIC (M. hyopneumoniae NB12; NB12, 144 h): 0.25 µg/mL (≈ 0.532 µM); MIC (Sarcina lutea 8340): > 64 µg/mL; MIC [10, 16]: 0.25 µg/mL (≈ 0.532 µM)
CC(=Cc1nnnn1Cc1ccc([N+](=O)[O-])cc1)CC1OCC(CC2OC2C(C)C(C)O)C(O)C1O (stereo not drawn) [Example 12, 1-(p-Nitrobenzyl)-5-(1-normon-2-yl)tetrazole A]	5 (≈ 9.93 µM)	> 80	> 80	> 10	0.1 (≈ 0.199 µM)	> 80	> 80	5 (≈ 9.93 µM)	100 (≈ 199 µM)	100 (≈ 199 µM)	50 (≈ 99.3 µM)	≥ 100	> 100	> 100	> 100	50 (≈ 99.3 µM)	2.5 (≈ 4.96 µM)	≥ 100	> 100	5 (≈ 9.93 µM)	MIC [2]: 2.5 µg/mL (≈ 4.96 µM); MIC (M. hyopneumoniae HK (2); [13]): 5 µg/mL (≈ 9.93 µM); MIC (M. hyopneumoniae NB12; [14]): 5 µg/mL (≈ 9.93 µM); MIC (Strep. pneumoniae CN33): 100 µg/mL (≈ 199 µM); MIC (Sarcina lutea 8340): ≥ 100 µg/mL; MIC [12]: 1 µg/mL (≈ 1.99 µM); MIC [10, 16]: 10 µg/mL (≈ 19.9 µM)
CC(=Cc1nnc(-c2cccnc2)o1)CC1OCC(CC2OC2C(C)C(C)O)C(O)C1O (stereo not drawn) [Example 5, 2-(1-Normon-2-yl)-5-(3-pyridyl)-1,3,4-oxadiazole A]	1 (≈ 2.24 µM)	> 80	> 80	> 10	0.025 (≈ 0.0561 µM)	80 (≈ 180 µM)	> 80	1 (≈ 2.24 µM)	32 (≈ 71.8 µM)	8 (≈ 18 µM)	8 (≈ 18 µM)	> 128	> 128	> 128	> 128	32 (≈ 71.8 µM)	0.5 (≈ 1.12 µM)	32 (≈ 71.8 µM)	> 128	2.5 (≈ 5.61 µM)	MIC (M. hyopneumoniae LABER): 1 µg/mL (≈ 2.24 µM); MIC [2]: 1 µg/mL (≈ 2.24 µM); MIC (B. subtilis ATCC 6633): 2.5 µg/mL (≈ 5.61 µM); MIC (M. hyopneumoniae NB12; NB12, 144 h): 2.5 µg/mL (≈ 5.61 µM); MIC (Sarcina lutea 8340): > 128 µg/mL
CC(=Cc1nnc(-c2ccc(S(C)(=O)=O)cc2)o1)CC1OCC(CC2OC2C(C)C(C)O)C(O)C1O (stereo not drawn) [Example 4, 2-p-Methylsulphonylphenyl-5-(1-normon-2-yl)-1,3,4-oxadiazole A]	0.25 (≈ 0.478 µM)	> 80	> 80	> 10	0.05 (≈ 0.0957 µM)	40 (≈ 76.5 µM)	> 80	4 (≈ 7.65 µM)	16 (≈ 30.6 µM)	8 (≈ 15.3 µM)	16 (≈ 30.6 µM)	> 64	> 64	> 64	> 64	16 (≈ 30.6 µM)	1 (≈ 1.91 µM)	32 (≈ 61.2 µM)	> 64	0.5 (≈ 0.957 µM)	MIC (M. hyopneumoniae LABER): 0.25 µg/mL (≈ 0.478 µM); MIC [2]: 0.1 µg/mL (≈ 0.191 µM); MIC (M. hyopneumoniae HK (2); [13]): 0.25 µg/mL (≈ 0.478 µM); MIC (B. subtilis ATCC 6633): 5 µg/mL (≈ 9.57 µM); MIC (M. hyopneumoniae NB12; [14]): 0.25 µg/mL (≈ 0.478 µM); MIC (Sarcina lutea 8340): > 64 µg/mL
CC(=Cc1nnnn1CCCCCCCCC(=O)O)CC1OCC(CC2OC2C(C)C(C)O)C(O)C1O (stereo not drawn) [Example 14, Sodium 1-(8-carboxylatooctyl)-5-(1-normon-2-yl)-1H-tetrazole A]	> 10	> 80	> 80	> 10	5	> 80	> 80	64	> 128	> 128	> 128	> 128	> 128	> 128	> 128	> 128	128	> 128	> 128	> 10	MIC (M. hyopneumoniae LABER): > 10 µg/mL; MIC (M. hyopneumoniae HK (2); [13]): > 10 µg/mL; MIC (M. hyopneumoniae NB12; [14]): > 10 µg/mL; MIC (Strep. pneumoniae CN33): > 128 µg/mL; MIC [10, 16]: > 128 µg/mL
